From the supplement of paper PMC10933113
Counter-ions that a name gives are not always drawn. ± gives the uncertainty stated by the source.

Legend:
[1] = tested on: KeratinoSens (HaCaT ARE-luciferase) cells; assay: efficacy of ARE luciferase induction relative to DMSO (% activity over DMSO); higher = stronger induction; details: exposure time: 24 h
[2] = tested on: KeratinoSens (HaCaT ARE-luciferase) cells; assay: cytotoxicity AC50 (CellTiter-Fluor viability); higher = less cytotoxic; details: exposure time: 24 h
[3] = tested on: THP-1; assay: efficacy of IL-8 induction relative to DMSO (% activity); higher = stronger induction; details: exposure time: 18 h
[4] = tested on: KeratinoSens (HaCaT ARE-luciferase) cells; assay: AC50 of Nrf2/ARE luciferase induction; higher = less potent; details: exposure time: 24 h
[5] = tested on: cysteine peptide Ac-RFAACAA-COOH; assay: efficacy of cysteine peptide change (negative = depletion) (% activity); higher = less depletion; details: incubation time: 24 h
[6] = tested on: lysine peptide Ac-RFAAKAA-COOH; assay: efficacy of lysine peptide change (negative = depletion) (% activity); higher = less depletion; details: incubation time: 24 h
[7] = tested on: cysteine peptide Ac-RFAACAA-COOH; assay: AC50 of cysteine peptide concentration-response (direction given by sign of efficacy); higher = less potent; details: incubation time: 24 h

Row | SMILES | efficacy of ARE luciferase induction [1] | cytotoxicity AC50 [2] [µM] | efficacy of IL-8 induction [3] | AC50 of Nrf2/ARE luciferase induction [4] [µM] | efficacy of cysteine peptide change [5] | efficacy of lysine peptide change [6] | AC50 [7] [µM]
1 | CCN(CC)CCNc1ccc(CNC=O)c2sc3ccc(OC)cc3c(=O)c12 | 189 ± 110 | 59.5 ± 26 | 3.79 ± 6.6 | 63.9 |  |  | 
2 | COc1cc(C(C)C)c2c(c1)S(=O)(=O)N(COc1cc(=O)n3cccc(OCCN4CCCCC4)c3n1)C2=O | 509 ± 320 |  | 54.6 ± 30 | 12.6 | 17.7 ± 15 | -2.72 ± 25 | 
3 | O=C(NS(=O)(=O)/C=C/c1ccccc1)c1ccc(F)cc1Cl | 82.9 ± 22 |  | 0 | 38.7 | 5 ± 8.7 | 67 ± 6.6 | 
4 | O=C(NS(=O)(=O)/C=C/c1cccs1)c1ccc(F)cc1Br | 56.2 ± 110 |  | 4.43 ± 7.7 | 14.1 | -6.04 ± 5.4 | 49.7 ± 18 | 
5 | C=CC(=O)OCCCCOC(=O)C=C [1,4-Butanediol diacrylate] | 336 ± 19 | 43 ± 2.8 | 16.2 ± 1.7 | 35.5 |  |  | 
6 | Cc1ccc(O)c(-n2nc3ccccc3n2)c1 [2-(2H-Benzotriazol-2-yl)-4-methylphenol] | 95.5 ± 93 |  | 0 | 22.4 | 3.66 ± 6.3 | -3.82 ± 16 | 
7 | Nc1nnc(-c2ccc([N+](=O)[O-])o2)o1 [2-Amino-5-(5-nitro-2-furyl)-1,3,4-oxadiazole] | 45.2 ± 31 |  | 4.08 ± 7.1 | 26.2 | -4.29 ± 3.9 | -11.9 ± 11 | 
8 | O=C(Nc1ccccc1)c1cc([N+](=O)[O-])ccc1Cl [2-Chloro-5-nitro-N-phenylbenzamide] | 92.4 ± 39 |  | 10.4 ± 3 | 40 | -15.7 ± 6.5 | 58.4 ± 17 | 
9 | Cc1ccc2c(c1[N+](=O)[O-])C(=O)c1ccccc1C2=O [2-Methyl-1-nitroanthraquinone] | 81.9 ± 8.7 |  | 12 ± 10 | 34.8 | -26 ± 7.3 | 0.29 ± 19 | 
10 | C[C@]12C=CC3=C4CCC(=O)C=C4CC[C@H]3[C@@H]1CC[C@@H]2O [17beta-Trenbolone] | 189 ± 53 | 50.9 ± 20 | 32.2 ± 36 | 39.1 |  |  | 
11 | CCOCN(C(=O)CCl)c1c(C)cccc1CC [Acetochlor] | 98.8 ± 68 | 55.2 ± 14 | 8.32 ± 8.4 | 53.6 | 11.4 ± 11 | 79.9 ± 12 | 
12 | Cc1c(C)n(CCN(C)C)c2ccc(C(=O)OCCN(C)C)cc12 [Amindocate] | 96.2 ± 38 | 28.3 ± 9.3 | -1.77 ± 3.1 | 29.8 | 9.57 ± 11 | 58.5 ± 9.6 | 
13 | COc1ccc(-c2cc(=S)ss2)cc1 [Anethole trithione] | 96.9 ± 78 | 34.2 ± 2.2 | 38.6 ± 10 | 22 | -84.1 ± 12 | -0.11 ± 7.8 | 
14 | O=C(Nc1cccc(Cl)c1)OCC#CCCl [Barban] | 101 ± 30 | 55.2 ± 14 | 34.1 ± 7.5 | 35.5 | -52.5 ± 14 | 33.7 ± 4.6 | 
15 | O=C(OCc1ccccc1)c1ccc(O)cc1 [Benzylparaben] | 52.2 ± 9.2 |  | 0 | 12.1 | 0 | 90.8 ± 51 | 
16 | CCCCOCN(C(=O)CCl)c1c(CC)cccc1CC [Butachlor] | 324 ± 31 | 41.4 ± 2.8 | 22.1 ± 11 | 70.8 | -24.1 ± 21 | 2.3 ± 11 | 
17 | [Cl][Cd][Cl] [Cadmium II chloride] | 146 ± 94 | 37.3 ± 6.7 | 19.4 ± 2.2 | 18.9 | 11.2 ± 30 | 4.14 ± 11 | 
18 | O=c1cc(-c2ccccc2)oc2cc(O)cc(O)c12 [Chrysin] | 210 ± 48 |  | 13.2 ± 3.6 | 53.6 | -10.9 ± 9.8 | 22 ± 20 | 
19 | Cc1cc(C2CC2)nc(Nc2ccccc2)n1 [Cyprodinil] | 41.8 ± 10 |  | 2.31 ± 4 | 35.1 | 6 ± 10 | 57 ± 8.8 | 
20 | C[C@]12CC[C@H](O)C[C@H]1CC[C@@H]1[C@@H]2C[C@@H](O)[C@]2(C)[C@@H](C3=CC(=O)OC3)CC[C@]12O [Digoxigenin] | 600 ± 260 | 4.65 ± 1.6 | 21.1 ± 4.1 | 5.7 | 2.17 ± 3.8 | 68.2 ± 22 | 
21 | O=C(Oc1ccccc1)c1cccc(C(=O)Oc2ccccc2)c1 [Diphenyl isophthalate] | 56.2 ± 20 |  | 0 | 29.8 | -4.99 ± 8.6 | -2 ± 3.5 | 
22 | CCOc1ccc2nc(S(N)(=O)=O)sc2c1 [Ethoxzolamide] | 58.7 ± 28 |  | 10.3 ± 4.8 | 25.3 | 2.67 ± 4.6 | 35.1 ± 5 | 
23 | C=C1C[C@@H]2[C@H](CC[C@]3(C)C(=O)CC[C@@H]23)[C@@]2(C)C=CC(=O)C=C12 [Exemestane] | 109 ± 64 |  | 3.01 ± 5.2 | 33 | -9.57 ± 9.8 | 97.5 ± 6.3 | 
24 | C/C=C1\C(=O)C[C@H]2[C@@H]3CCC4=CC(=O)CC[C@]4(C)[C@H]3CC[C@]12C [Guggulsterone Z] | 135 ± 63 |  | 7.24 ± 12 | 53.6 | 2.81 ± 4.9 | 11.4 ± 10 | 

Row | SMILES | efficacy of ARE luciferase induction [1] | cytotoxicity AC50 [2] [µM] | efficacy of IL-8 induction [3] | AC50 of Nrf2/ARE luciferase induction [4] [µM] | efficacy of cysteine peptide change [5] | efficacy of lysine peptide change [6] | AC50 [7] [µM]
25 | OC12N=C(c3ccccc3)SC1Cc1cc(Cl)ccc12 (stereo unspecified) [HMR1426] | 86.8 ± 69 |  | 0 | 28.9 |  |  | 
26 | C=CCOC(Cn1ccnc1)c1ccc(Cl)cc1Cl (stereo unspecified) [Imazalil sulfate] | 40.5 ± 36 |  | 0 | 29.9 | 38.5 ± 11 | 166 ± 21 | 
27 | CC(C)=CCC1=C(O)c2ccccc2C(=O)C1=O [Lapachol] | 65.3 ± 5.4 |  | 25.8 ± 1.6 | 26.7 | 26.5 | -2.31 ± 13 | 
28 | O=C(O)Cn1c(C(=O)Nc2nc(-c3ccccc3Cl)cs2)cc2ccccc21 [Lintitript] | 155 ± 87 |  | 8.96 ± 8.3 | 32.9 | 1.07 ± 9.6 | -12.9 ± 12 | 
29 | CC#Cc1cc(C)nc(Nc2ccccc2)n1 [Mepanipyrim] | 73.3 ± 15 |  | 4.67 ± 8.1 | 47.4 | -2.96 ± 5.1 | 48.4 ± 24 | 
30 | COc1ccc(C(c2ccc(OC)cc2)C(Cl)(Cl)Cl)cc1 [Methoxychlor] | 50.9 ± 18 |  | 21.1 ± 3.3 | 43.2 | 2.72 ± 4.7 | -3.51 ± 15 | 
31 | COc1ccc2cc(CCC(C)=O)ccc2c1 [Nabumetone] | 124 ± 44 | 7.94 | 0.27 ± 5.5 | 3.98 | -3.44 ± 6 | -2.87 ± 17 | 
32 | O=C(O)c1ccccc1C(=O)Nc1cccc2ccccc12 [Naptalam*] | 61.4 ± 78 | 25.1 | 7.99 ± 7 |  | -104 ± 4.3 | 10.2 ± 26 | 4 ± 1.3
33 | CCCCC1C(=O)N(c2ccccc2)N(c2ccc(O)cc2)C1=O (stereo unspecified) [Oxyphenbutazone] | 221 ± 160 | 11.7 ± 0.79 | 31.1 ± 25 |  | -95.2 ± 6.3 | 12.6 ± 12 | 2.39 ± 0.7
34 | O=C1Nc2ccccc2C1(c1ccc(O)cc1)c1ccc(O)cc1 [Oxyphenisatin] | 47.8 ± 12 |  | 0 | 19 | -16.7 ± 14 | 39.7 ± 4.7 | 
35 | O=[N+]([O-])c1c(Cl)c(Cl)c(Cl)c(Cl)c1Cl [Pentachloronitrobenzene] | 47.4 ± 32 |  | 12.2 ± 11 | 42.1 | -3.67 ± 6.3 | 5.1 ± 8.8 | 
36 | O=CC(=O)c1ccccc1 [Phenyl glyoxal] | 522 ± 80 |  | 0 | 35.5 | -26.9 ± 24 | -25.8 ± 6.1 | 
37 | Clc1ccccc1-c1nc(-c2ccncc2)no1 [Pifexole] | 60.8 ± 7.6 |  | 4.35 ± 7.5 | 11.4 | 3.16 ± 5.5 | 10.5 ± 18 | 
38 | C[C@@H]1O[C@@H](O[C@@H]2C=C3CC[C@@H]4[C@H](CC[C@]5(C)[C@@H](c6ccc(=O)oc6)CC[C@]45O)[C@@]3(C)CC2)[C@H](O)[C@H](O)[C@H]1O [Proscillaridin] | 246 ± 170 | 0.51 ± 0.11 | 38.2 ± 14 | 0.27 | 2.01 ± 3.5 | 14.3 ± 11 | 
39 | CC(COc1ccc(Oc2ccccc2)cc1)Oc1ccccn1 (stereo unspecified) [Pyriproxyfen] | 83.9 ± 13 |  | 4.2 ± 1.8 | 34.9 | 8.09 ± 7 | -7.08 ± 11 | 
40 | CC(C)=CCOc1ccc(/C=C/C(=O)c2ccc(OCC=C(C)C)cc2OCC(=O)O)cc1 [Sofalcone] | 521 ± 240 |  | 0 | 33 | 54.9 | -12.4 ± 20 | 
41 | O=C1OC(OC(=O)c2cccnc2Nc2cccc(C(F)(F)F)c2)c2ccccc21 (stereo unspecified) [Talniflumate] | 1280 ± 66 |  | 9.09 ± 8.3 | 35.5 | -29.7 ± 11 | 85.3 ± 9.9 | 
42 | NC(=O)n1c(O)c(C(=O)c2cccs2)c2cc(Cl)ccc21 [Tenidap*] | 19.7 ± 5.4 | 53.4 ± 15 | 4.22 ± 7.3 |  | -110 ± 11 | 11.2 ± 11 | 50.1
43 | OC[P+](CO)(CO)CO [Tetrakis(hydroxymethyl)phosphonium SO4] | 126 ± 16 |  | 4.18 ± 7.2 | 29.4 | 43.1 ± 6.6 | -40.3 ± 14 | 
44 | NNC(N)=S [Thiosemicarbazide] | 64.8 ± 15 | 28.3 ± 3.2 | 35.8 ± 29 | 15.8 | -40.9 ± 11 | 9.67 ± 17 | 
45 | CCN(CC)CCOc1ccc2c(c1)C(=O)c1cc(OCCN(CC)CC)ccc1-2 [Tilorone] | 293 ± 85 | 12.6 ± 1.4 | 27.2 ± 3.2 | 22.1 | -43 ± 15 | 81.7 ± 28 | 
46 | CCCOC/C(=N\c1ccc(Cl)cc1C(F)(F)F)n1ccnc1 [Triflumizole] | 134 ± 58 |  | 38.3 ± 1.3 | 63.9 | 4.17 ± 7.2 | 41.1 ± 13 | 
47 | O=C(CCCCCCC(=O)Nc1ccccc1)NO [Vorinostat (SAHA)] | 597 ± 130 | 11.4 ± 2.1 | 7.76 ± 8.9 | 11.7 | 0 | 11.4 ± 21 | 
48 | COP(=O)(OC)O/C(=C\Cl)c1cc(Cl)c(Cl)cc1Cl [Z-Tetrachlorvinphos] | 72.1 ± 13 | 53.6 ± 16 | 1.71 ± 3 | 41.8 | 4.88 ± 8.5 | 75.2 ± 24 | 
